Laboratory results published in US5861476A, “Peptides and compounds that bind to the IL-1 receptor” (Affymax Technologies N.V., priority 1995, dated 1999).
pIC50: −log10 of the molar value. Where a SMILES comes first, the peptide text is derived from it. [ ]: non-standard residue; d: D form. Bpa = N[C@@H](Cc1ccc(C(=O)c2ccccc2)cc1)C(=O)O; Pip = O=C(O)[C@@H]1CCCCN1; Aze = O=C(O)[C@@H]1CCN1; Sar = CNCC(=O)O

Target: T1, IL-1RtI (Homo sapiens, UniProt P14778)
T1 construct: made in house; host or cells: recombinant host cells (one form soluble from baculovirus transformed host cells; another PIG-tailed and cleaved from the cell surface)
T1 sequence (P14778 18-336): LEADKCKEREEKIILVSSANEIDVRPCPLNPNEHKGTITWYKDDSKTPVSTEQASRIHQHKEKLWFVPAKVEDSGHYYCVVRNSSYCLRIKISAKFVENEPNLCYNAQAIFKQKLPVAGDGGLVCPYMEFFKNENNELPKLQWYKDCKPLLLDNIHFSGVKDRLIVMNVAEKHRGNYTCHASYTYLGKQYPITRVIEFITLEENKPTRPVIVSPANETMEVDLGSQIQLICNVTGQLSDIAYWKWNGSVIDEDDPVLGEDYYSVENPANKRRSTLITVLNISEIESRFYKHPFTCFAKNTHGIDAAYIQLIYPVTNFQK
Assay: Inhibition of 125I-IL-1α binding to IL-1RtI (Example 3)
Conditions: not given
Description: This example provides the results of experiments conducted to determine an approximate IC50 for certain peptides of the invention. IC50 as used herein refers to the concentration of a compound which will inhibit 50% of the binding between a receptor and its ligand, e.g. IL-1RtI and IL-1. Stock solutions of each peptide were prepared. The appropriate amount of the peptide was dissolved in DMSO, and then nineteen volumes of binding buffer (RPMI 1640, 1% BSA, 20 mM HEPES, pH 7.2-7.3, and 0.1% sodium azide) were added to yield a 1 mM peptide, 5% DMSO stock solution.
One assay utilized a truncated IL-1RtI which had been immobilized on 96-well plates with an appropriate antibody, typically a non-blocking high affinity antibody. In other assays, cells expressing "full-length" IL-1RtI were used with results that yielded IC50 values about 5 to 10 fold lower than those determined using the truncated receptor. The cells were seeded onto Falcon 3072 96-well plates at about 10^5 cells per well, and the plates were incubated overnight at 37° C. in media containing serum. The following morning, the cells were checked to ensure that the cells were confluent and adhered to the bottom of the wells.
According to either assay protocol, the plates were then washed three times with binding buffer, and then 50 μl of binding buffer and 25 μl of a peptide solution (either the stock solution or a dilution thereof; each stock was subjected to five three fold dilutions) were added to each well. Then 25 μl of binding buffer containing ^125 I-IL-1α (final concentration of 90 pM) were added to each well to begin the assay. Each assay was carried out in duplicate. The plates were then incubated for two hours at 4° C. For peptides having particularly high affinities, the assay was run in 24 well plates allowing for higher levels of ligand (possible total volume of 2.5 ml instead of 100 μl in the 96 well plate), thereby minimizing the potential for ligand depletion.
After the two hour incubation, the wells were rinsed three times with ice cold PBS (a semi-automated cell harvesting device was used to conduct the rinse). The receptors or cells were then detached from the plates by adding 100 μl of 0.1N NaOH to each well and incubating the plates at room temperature for 20 minutes. After the 20 minute incubation, about 75 μl of the suspension was counted on a gamma counter, and the IC50 for each peptide was determined using computer assistance and the results of the gamma counting.

Row | pIC50 | SMILES
1 | > 6.30 | C[C@@H](O)[C@H](NC(=O)[C@H](Cc1c[nH]c2ccccc12)NC(=O)[C@H](CCC(=O)O)NC(=O)[C@@H](N)Cc1ccccc1)C(=O)N1CCC[C@H]1C(=O)N[C@H](CC(N)=O)C(=O)N[C@@H](Cc1ccc(O)cc1)C(=O)N[C@@H](Cc1ccc(O)cc1)C(=O)N[C@@H](CCC(N)=O)C(=O)N1CC[C@H]1C(=O)N[C@@H](Cc1ccc(O)cc1)C(N)=O [FEWTPnYYQJY-NH2] (H-FEWTP[dN]YYQ[Aze]Y-NH2)
2 | > 6.30 | C[C@@H](O)[C@H](NC(=O)[C@H](Cc1c[nH]c2ccccc12)NC(=O)[C@H](CCC(=O)O)NC(=O)[C@@H](N)Cc1ccccc1)C(=O)N1CCC[C@H]1C(=O)N[C@H](CO)C(=O)N[C@@H](Cc1ccc(O)cc1)C(=O)N[C@@H](Cc1ccc(O)cc1)C(=O)N[C@@H](CCC(N)=O)C(=O)N1CC[C@H]1C(=O)N[C@@H](Cc1ccc(O)cc1)C(N)=O [FEWTPsYYQJY-NH2] (H-FEWTP[dS]YYQ[Aze]Y-NH2)

Same assay, conditions: inhibition of 125I-IL-1α binding to IL-1RtI; soluble peptide unless marked *

Row | pIC50 | SMILES
3 | 6.30 | C[C@H](NC(=O)CNC(=O)[C@@H]1CCCN1C(=O)[C@@H](NC(=O)[C@H](Cc1c[nH]c2ccccc12)NC(=O)[C@H](CCC(=O)O)NC(=O)[C@@H](N)Cc1ccccc1)[C@@H](C)O)C(=O)N[C@@H](Cc1c[nH]c2ccccc12)C(=O)N[C@@H](CCC(N)=O)C(=O)N1CC[C@H]1C(=O)N[C@@H](Cc1ccc(O)cc1)C(N)=O [FEWTPGAWQJY--NH2] (H-FEWTPGAWQ[Aze]Y-NH2)
4 | ≥ 6.30 | C[C@@H](O)[C@H](NC(=O)[C@H](Cc1c[nH]c2ccccc12)NC(=O)[C@H](CCC(=O)O)NC(=O)[C@@H](N)Cc1ccccc1)C(=O)N1CCC[C@H]1C(=O)NCC(=O)N[C@@H](Cc1c[nH]c2ccccc12)C(=O)N[C@@H](Cc1ccc(O)cc1)C(=O)N[C@@H](CCC(N)=O)C(=O)N1CC[C@H]1C(=O)N[C@@H](Cc1ccc(O)cc1)C(N)=O [FEWTPGWYQJY--NH2] (H-FEWTPGWYQ[Aze]Y-NH2)
5 | < 4.00 | C[C@H](NC(=O)[C@H](Cc1c[nH]c2ccccc12)NC(=O)[C@H](Cc1ccc(O)cc1)NC(=O)CNC(=O)[C@@H]1CCCN1C(=O)[C@@H](NC(=O)[C@H](Cc1c[nH]c2ccccc12)NC(=O)[C@H](CCC(=O)O)NC(=O)[C@@H](N)Cc1ccccc1)[C@@H](C)O)C(=O)N1CC[C@H]1C(=O)N[C@@H](Cc1ccc(O)cc1)C(N)=O [FEWTPGYWAJY--NH2] (H-FEWTPGYWA[Aze]Y-NH2)
6 | ≥ 4.00 | C[C@H](NC(=O)[C@@H]1CCN1C(=O)[C@H](CCC(N)=O)NC(=O)[C@H](Cc1c[nH]c2ccccc12)NC(=O)[C@H](Cc1ccc(O)cc1)NC(=O)CNC(=O)[C@@H]1CCCN1C(=O)[C@@H](NC(=O)[C@H](Cc1c[nH]c2ccccc12)NC(=O)[C@H](CCC(=O)O)NC(=O)[C@@H](N)Cc1ccccc1)[C@@H](C)O)C(N)=O [FEWTPGYWQJA--NH2] (H-FEWTPGYWQ[Aze]A-NH2)
7 | ≥ 6.30 | C[C@@H](O)[C@H](NC(=O)[C@H](Cc1c[nH]c2ccccc12)NC(=O)[C@H](CCC(=O)O)NC(=O)[C@@H](N)Cc1ccccc1)C(=O)N1CCC[C@H]1C(=O)N[C@@H](CC(N)=O)C(=O)N[C@@H](Cc1ccc(O)cc1)C(=O)N[C@@H](Cc1c[nH]c2ccccc12)C(=O)N[C@@H](CCC(N)=O)C(=O)N1CC[C@H]1C(=O)N[C@@H](Cc1ccc(O)cc1)C(N)=O [FEWTPNYWQJY--NH2] (H-FEWTPNYWQ[Aze]Y-NH2)
8 | ≥ 6.30 | C[C@@H](O)[C@H](NC(=O)[C@H](Cc1c[nH]c2ccccc12)NC(=O)[C@H](CCC(=O)O)NC(=O)[C@@H](N)Cc1ccccc1)C(=O)N1CCC[C@H]1C(=O)N(C)CC(=O)N[C@@H](Cc1c[nH]c2ccccc12)C(=O)N[C@@H](Cc1ccc(O)cc1)C(=O)N[C@@H](CCC(N)=O)C(=O)N1CC[C@H]1C(=O)N[C@@H](Cc1ccc(O)cc1)C(N)=O [FEWTPSarWYQJY--NH2] (H-FEWTP[Sar]WYQ[Aze]Y-NH2)
9 | ≥ 6.30 | C[C@@H](O)[C@H](NC(=O)[C@H](Cc1c[nH]c2ccccc12)NC(=O)[C@H](CCC(=O)O)NC(=O)[C@@H](N)Cc1ccccc1)C(=O)N1CCCC[C@H]1C(=O)NCC(=O)N[C@@H](Cc1ccc(O)cc1)C(=O)N[C@@H](Cc1c[nH]c2ccccc12)C(=O)N[C@@H](CCC(N)=O)C(=O)N1CC[C@H]1C(=O)N[C@@H](Cc1ccc(O)cc1)C(N)=O [FEWTPecGYWQJY--NH2] (H-FEWT[Pip]GYWQ[Aze]Y-NH2)
10 | ≥ 6.30 | CC(C)[C@@H](NC(=O)[C@@H]1CCCN1C(=O)[C@@H](NC(=O)[C@H](Cc1c[nH]c2ccccc12)NC(=O)[C@H](CCC(=O)O)NC(=O)[C@@H](N)Cc1ccccc1)[C@@H](C)O)C(=O)N[C@@H](Cc1ccc(O)cc1)C(=O)N[C@@H](Cc1c[nH]c2ccccc12)C(=O)N[C@@H](CCC(N)=O)C(=O)N1CC[C@H]1C(=O)N[C@@H](Cc1ccc(O)cc1)C(N)=O [FEWTPvYWQJY--NH2] (H-FEWTP[dV]YWQ[Aze]Y-NH2)
11 | ≥ 4.00 | CC(C)[C@H](NC(=O)[C@@H](NC(=O)[C@H](Cc1c[nH]c2ccccc12)NC(=O)[C@H](CCC(=O)O)NC(=O)[C@@H](N)Cc1ccccc1)[C@@H](C)O)C(=O)N1CCC[C@H]1C(=O)N[C@@H](Cc1ccc(O)cc1)C(=O)N[C@@H](Cc1c[nH]c2ccccc12)C(=O)N[C@@H](CCC(N)=O)C(=O)N1CC[C@H]1C(=O)N[C@@H](Cc1ccc(O)cc1)C(N)=O [FEWTVPYWQJY--NH2] (H-FEWTVPYWQ[Aze]Y-NH2)
12 | ≥ 6.30 | C[C@@H](O)[C@H](NC(=O)[C@H](Cc1c[nH]c2ccccc12)NC(=O)[C@H](CCC(=O)O)NC(=O)[C@@H](N)Cc1ccccc1)C(=O)N1CCC[C@@H]1C(=O)NCC(=O)N[C@@H](Cc1ccc(O)cc1)C(=O)N[C@@H](Cc1c[nH]c2ccccc12)C(=O)N[C@@H](CCC(N)=O)C(=O)N1CC[C@H]1C(=O)N[C@@H](Cc1ccc(O)cc1)C(N)=O [FEWTpGYWQJY--NH2] (H-FEWT[dP]GYWQ[Aze]Y-NH2)

Second part, the molecule before the results:

Row | SMILES | pIC50
13 | C[C@@H](O)[C@H](NC(=O)[C@H](Cc1c[nH]c2ccccc12)NC(=O)[C@H](CCC(=O)O)NC(=O)[C@@H](N)Cc1ccccc1)C(=O)N1CCC[C@H]1C(=O)NCC(=O)N[C@@H](Cc1ccc(C(=O)c2ccccc2)cc1)C(=O)N[C@@H](Cc1ccc(O)cc1)C(=O)N[C@@H](CCC(N)=O)C(=O)N1CC[C@H]1C(=O)N[C@@H](Cc1ccc(O)cc1)C(N)=O [FEWTPG--Bpa--YQJY--NH2] (H-FEWTPG[Bpa]YQ[Aze]Y-NH2) | ≥ 6.30
14 | C[C@@H](O)[C@H](NC(=O)[C@H](Cc1c[nH]c2ccccc12)NC(=O)[C@H](CCC(=O)O)NC(=O)[C@@H](N)Cc1ccccc1)C(=O)N1CCC[C@H]1C(=O)NCC(=O)N[C@@H](Cc1ccc(O)cc1)C(=O)N[C@@H](Cc1ccc(C(=O)c2ccccc2)cc1)C(=O)N[C@@H](CCC(N)=O)C(=O)N1CC[C@H]1C(=O)N[C@@H](Cc1ccc(O)cc1)C(N)=O [FEWTPGY--Bpa--QJY--NH2] (H-FEWTPGY[Bpa]Q[Aze]Y-NH2) | ≥ 6.30
15 | C[C@H](NC(=O)[C@H](Cc1ccc(O)cc1)NC(=O)CNC(=O)[C@@H]1CCCN1C(=O)[C@@H](NC(=O)[C@H](Cc1c[nH]c2ccccc12)NC(=O)[C@H](CCC(=O)O)NC(=O)[C@@H](N)Cc1ccccc1)[C@@H](C)O)C(=O)N[C@@H](CCC(N)=O)C(=O)N1CC[C@H]1C(=O)N[C@@H](Cc1ccc(O)cc1)C(N)=O [FEWTPGYAQJY--NH2] (H-FEWTPGYAQ[Aze]Y-NH2) | ≥ 4.00
16 | C[C@@H](O)[C@H](NC(=O)[C@H](Cc1c[nH]c2ccccc12)NC(=O)[C@H](CCC(=O)O)NC(=O)[C@@H](N)Cc1ccccc1)C(=O)N1CCC[C@H]1C(=O)NCC(=O)N[C@@H](Cc1ccc(O)cc1)C(=O)N[C@@H](Cc1ccc(O)cc1)C(=O)N[C@@H](CCC(N)=O)C(=O)N1CC[C@H]1C(=O)N[C@@H](Cc1ccc(C(=O)c2ccccc2)cc1)C(N)=O [FEWTPGYYQJ--Bpa--NH2] (H-FEWTPGYYQ[Aze][Bpa]-NH2) | ≥ 4.00
17 | C[C@@H](O)[C@H](NC(=O)[C@H](Cc1c[nH]c2ccccc12)NC(=O)[C@H](CCC(=O)O)NC(=O)[C@@H](N)Cc1ccccc1)C(=O)N(C)CC(=O)NCC(=O)N[C@@H](Cc1ccc(O)cc1)C(=O)N[C@@H](Cc1c[nH]c2ccccc12)C(=O)N[C@@H](CCC(N)=O)C(=O)N1CC[C@H]1C(=O)N[C@@H](Cc1ccc(O)cc1)C(N)=O [FEWTSarGYWQJY--NH2] (H-FEWT[Sar]GYWQ[Aze]Y-NH2) | ≥ 6.30
